Data on 14 compounds can be found in ChEMBL document CHEMBL1201862, “PubChem BioAssay data set” (2004).

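Grown in 96-well plates, cells were treated for 48 hours with each compound at five concentrations. Insufficient inhibition: endpoint recorded as highest concentration tested. GI50 marks 50% less growth.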 Calls of active or inactive are those of the source. Cut-off read from the data, not from the text of the source: active = GI50 up to about 1.1 µM and inactive = higher. Some results are limits rather than exact numbers.

What all share (experiment): NCI tumour cell line growth inhibition, 48 h
Assay [1] relates to HOP-18.
The test system of assay [2] is M19-MEL.
For assay [3], the system named is XF498.
The test system of assay [4] is MDA-MB-231.
In assay [5] the test system is TK-10.
The test system of assay [6] is LXFL 529.
Assay [7] deals with SR.
The test system of assay [8] is RXF 631.

As for `Cc1c2cnccc2c(C)c2c1c1ccccc1n2CCCCCCNCc1ccccc1`, the GI50 is 0.547 µM (active) in assay [1], 2.09 µM (inactive) in assay [2] and 2.29 µM (inactive) in assay [3].
On to `COC(OC)C1OC(CO)C(n2cc(F)c(=O)[nH]c2=O)C1O` (centres undefined), for which the GI50 in assay [4] and in assay [5] was > 100 µM (inactive) in each case.
For the compound `CC(C)OP(=O)(OC(C)C)/C(I)=N/Nc1ccc([N+](=O)[O-])cc1`, the GI50 in assay [6], in assay [2], in assay [7], in assay [5] and in assay [3] was > 100 µM (inactive) each time.
Regarding `C=C(C(=O)C(=O)Oc1ccc(Cl)cc1)C(=O)c1ccc(C)cc1`, the GI50 in assay [1] was > 100 µM (inactive); in assay [6], 27.9 µM (inactive); in assay [2] it was 17.7 µM (inactive); in assay [8], 46.2 µM (inactive); in assay [7], 13.1 µM (inactive); in assay [5], > 100 µM (inactive). For the same compound, the GI50 in assay [3] was > 100 µM (inactive).
For the compound `COc1ccc2c(c1)CC1Cc3ccccc3CCN1C2` (centres undefined), the figures for the GI50 in assay [4], in assay [7] and in assay [5] were 6.65 µM (inactive), 65.8 µM (inactive) and 24.5 µM (inactive), respectively.
As to `NC1(C(=O)O)CCCC1` [CYCLOLEUCINE], the GI50 in assay [1] was > 625 µM (inactive); in assay [2], > 625 µM (inactive); in assay [3], 5.77 µM (inactive).
For `COc1nc2ccc(CNc3ccc(C(=O)NC(CCC(=O)O)C(=O)O)cc3)cc2nc1OC` (centres undefined), the GI50 in assay [4], in assay [7] and in assay [5] was > 100 µM (inactive) in each case.
In the case of `c1ccc(/N=C2\SC3=NCCN3\C2=N/c2ccccc2)cc1`, the GI50 in assay [4] is 22.9 µM (inactive); in assay [7] it was 21.4 µM (inactive).
Take `COP(=O)(OC)/C(=C/c1cn(C(C)=O)c2ccccc12)NC(C)=O`: the values for the GI50 in assay [4], in assay [7] and in assay [5] were 36.1 µM (inactive), 15.8 µM (inactive) and 58.2 µM (inactive), respectively.
In the case of `c1ccc2cc3n[se]nc3cc2c1`, the GI50 in assay [1] is < 0.01 µM (active); in assay [6], > 100 µM (inactive); in assay [8], 10.4 µM (inactive); in assay [5] it was > 100 µM (inactive).
Regarding `Nc1n[nH]c2nc3ccccc3nc12` [QUINOXALINE1], the GI50 in assay [4] is > 100 µM (inactive); in assay [7] it was 20 µM (inactive); in assay [5], 70.1 µM (inactive).
The matching figures for `Cc1ccc(S(N)(C(=O)Nc2cccc3ccccc23)[N+](=O)[O-])cc1` (centres undefined): 36.6 µM (inactive), 58.9 µM (inactive) and 72.4 µM (inactive).
Turning to `COc1cc2c(cc1OC)-c1cc3ccccc3c(=O)n1CC2`, the GI50 in assay [4] is 2.17 µM (inactive); in assay [7] it was 14.3 µM (inactive); in assay [5] it was 19.9 µM (inactive).
`O=C(O)c1cc2sc(C(=O)O)cc2s1`: the GI50 in assay [6], in assay [2], in assay [7], in assay [5] and in assay [3] was > 100 µM (inactive) throughout.
